Assays:
Prolyl endopeptidase = Prolyl endopeptidase (Sus scrofa, UniProt P23687); experiment: Inhibition of recombinant porcine PREP expressed in Escherichia coli using Suc-Gly-Pro-AMC as substrate preincubated for 30 mins followed by substrate addition and measured after 60 mins by multilabel counter analysis
HEK293 = experiment: Induction of autophagy in human HEK293 cells expressing GFP-LC3B-RFP assessed as decrease in fluorescence at 10 uM after 24 hrs by multilabel counter method; assay type: functional; set-up: scale not given: the % may be the effect or the level left

Chain of Prolyl endopeptidase (P23687 whole entry): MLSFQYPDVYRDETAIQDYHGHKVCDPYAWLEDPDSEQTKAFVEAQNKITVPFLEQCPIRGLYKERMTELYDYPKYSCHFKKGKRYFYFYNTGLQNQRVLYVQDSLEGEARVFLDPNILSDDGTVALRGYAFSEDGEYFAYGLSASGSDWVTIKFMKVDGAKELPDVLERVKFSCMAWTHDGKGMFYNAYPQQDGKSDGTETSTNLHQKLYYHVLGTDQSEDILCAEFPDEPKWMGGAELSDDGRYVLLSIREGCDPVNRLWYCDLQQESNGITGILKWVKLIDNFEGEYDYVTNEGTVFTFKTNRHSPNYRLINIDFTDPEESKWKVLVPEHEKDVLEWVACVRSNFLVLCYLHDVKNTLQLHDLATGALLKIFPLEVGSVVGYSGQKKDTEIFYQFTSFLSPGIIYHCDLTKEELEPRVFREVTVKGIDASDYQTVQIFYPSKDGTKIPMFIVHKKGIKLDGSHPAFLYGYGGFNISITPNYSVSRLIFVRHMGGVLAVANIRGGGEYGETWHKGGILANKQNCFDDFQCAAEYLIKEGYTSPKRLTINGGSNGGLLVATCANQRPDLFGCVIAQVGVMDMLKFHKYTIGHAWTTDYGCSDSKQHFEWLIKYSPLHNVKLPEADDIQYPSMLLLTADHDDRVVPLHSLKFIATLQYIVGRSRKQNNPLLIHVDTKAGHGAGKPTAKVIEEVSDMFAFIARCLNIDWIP

Row | SMILES | IC50 (Prolyl endopeptidase) | Activity (HEK293)
1 | CN(CC(=O)N1CCC[C@H]1c1nnn[nH]1)C(=O)CCc1ccccc1 | 62 µM | 
2 | N#C[C@@H]1CCCN1C(=O)[C@@H]1CCCN1C(=O)CCCc1ccccc1 |  | 89%
3 | O=C(CCCc1ccccc1)N1CCC[C@H]1C(=O)N1CCC[C@H]1c1ccn[nH]1 | 70 µM | 
4 | C[C@H](NC(=O)CCCc1ccccc1)C(=O)N1CCC[C@H]1c1nnc[nH]1 | 55 µM | 

The remaining compounds from weak to strong by IC50 (Prolyl endopeptidase), led by results:

Row | IC50 (Prolyl endopeptidase) | SMILES | Activity (HEK293)
5 | 29 µM | O=C(CCCc1ccccc1)N1CCC[C@H]1C(=O)N1CCC[C@H]1c1nnc[nH]1 | 
6 | 12 µM | Cn1nnc([C@@H]2CCCN2C(=O)[C@@H]2CCCN2C(=O)CCCc2ccccc2)n1 | 

From ChEMBL document CHEMBL4823326 (ACS Med Chem Lett, 2021)
